Here are results for two substances from patent US8226943B2, “Antibodies to notch receptors” (OncoMed Pharmaceuticals, Inc., priority 2008, dated 2012).

The test system of one experiment is PE13 breast tumors. Briefly: Microarray analysis of PE13 breast tumors treated with taxol or 59R1 plus taxol. It is filed as in vivo, mice. The note with it: PE13, 59R1 Taxol vs. Taxol. How it is done: In addition to investigating the effects of 59R1 in tumors and the effect on CSC frequency, gene changes were studied following 59R1 treatment in combination with taxol. The experiment was performed in PE13 breast tumors where a decrease in CSC frequency after treatment with 59R1 alone or 59R1 plus taxol treatment had previously been observed (and described herein). Microarray analysis was performed on tumors from the same experiment where limiting dilution analyses of PE13 were carried out for CSC quantification (FIG. 19). Animals bearing PE13 breast tumors were treated three weeks with 59R1 plus taxol, control and taxol prior to harvesting for microarray analysis. Mean differential expression values for taxol vs. control and 59R1 plus taxol vs. taxol treated animals (3 animals per group) were calculated.

In a further experiment the target is human Notch2 (Homo sapiens, UniProt Q04721). Put plainly: FACS binding to human Notch2 on stably transfected HEK-293 cells. Details: expressed in transfected cells; host or cells: HEK-293, stably transfected. The note with it: HEK-293 stably overexpressing human Notch2. How it is done: A particular Fab (59R1) was identified that bound the human Notch2 receptor and blocked binding of Jagged1 to human Notch2. Binding of the 59R1 Fab to human Notch2 was verified by FACS assay using a stable human cell line HEK-293 which overexpressed human Notch2 (hN2) (FIG. 1A). Fab binding was detected by phycoerythrin (PE)-conjugated goat anti-human Fab (Jackson Immunochemicals). […] Ligand binding and blocking was determined by incubating hJagged 1 extracellular domain (ECD) fused to human Fc constant region with the cells and Fabs selected from the phage library and using PE-conjugated goat anti-human Fc gamma specific antibodies (Jackson Immunochemicals) for detection.
In addition, the 59R1 IgG2 antibody was assayed for its ability to block binding of DLL4 to the human Notch 2 receptor by FACS analysis. HEK-293 cells stably overexpressing human Notch2 were incubated with the antibody at various concentration and then detected for hNotch2 binding (FIG. 1C) by PE-conjugated goat anti-human Fc gamma specific antibody, or ligand blocking activity (FIG. 1D). Ligand blocking was determined by incubating the cells with human DLL4 ECD tagged with the rabbit Fc constant region and the 59R1 antibody at a range of concentrations, and then detecting the hDLL4 by PE-conjugated donkey anti-rabbit antibody. […]
For orientation: Flow cytometry measures light scatter and fluorescence of single cells or particles in a stream.

The subject of experiment [1] is breast tumor xenograft line OMP-B39. Briefly: OMP-B39 breast tumor xenograft growth. Type of experiment: in vivo, NOD/SCID mice. The settings on record: established tumors, 15 mg/kg once a week. The protocol:
The 59R1 IgG2 antibody was also tested in vivo in the breast tumor xenograft lines OMP-B34, OMP-B39, OMP-B44, PE13, and UM-T1, the pancreas tumor xenograft line OMP-PN8, and the colon tumor xenograft line OMP-C8. These tumor xenograft lines were established by adhering to procedures described in Al-Hajj et al., 2003, Proc. Natl. Acad. Sci. USA, 100:3983-3988. Female NOD/SCID immuno-compromised mice 7-10 weeks old were used for the establishment of the breast tumor xenografts and male NOD/SCID mice were used for the OMP-Pn8 and OMP-C8 tumor-models (Harlan, Indianapolis, Ind.). The 59R1 IgG2 antibody was also tested in vivo in a Colo-205 colon tumor xenograft model. Female immunodeficient bg/nu XID mice on a Swiss CD-1 background were used for the Colo-205 xenograft tumor model. In case of the breast cancer models, slow-releasing estrogen pellets (0.36 mg) had to be implanted. Mice were subcutaneously injected on the right flank with 50,000 (OMP-B34, OMP-B39, OMP-B44, PE13, and UM-T1) or 1×10^7 (Colo-205) viable cells, respectively, in a mixture of PBS (without magnesium or calcium) and Matrigel at a 1:1 ratio. […] Antibodies were administered weekly and tumors measured twice weekly. […] Tumor volume was calculated as described Al-Hajj et al. (2003). Data are expressed as the mean and the mean±S.E.M. Group means were compared using Student's two-tailed, unpaired t-test. […]

Experiment [2] relates to hJAG1-induced Notch2 signaling. Briefly: Luciferase reporter assay, hJAG1-induced Notch2 signaling in Hela cells. The settings on record: 40 μg/ml. Type of experiment: cell-based, human. The protocol:
Luciferase reporter assays were used to assay the 59R1 antibody for its ability to block hDLL4-, hJAG1-, and hJAG2-induced Notch2 signaling.
Hela cells that stably overexpress human Notch2 were transiently transfected with firefly luciferase with a synthetic 8×CBS promoter, pSPORT6 MAML-1, and Renilla luciferase-CMV as a transfection control. Cells were incubated with either 200 ng of immobilized hJAG1 (R&D systems) or hJAG2 (R&D systems) for 16 hours and then assayed using Dual-Glo (Promega) according to the manufacturer's instructions. 59R1 IgG2 antibody was at a concentration of 40 μg/ml. The gamma secretase inhibitor (GSI) dibenzazepine (DBZ) was used as a control at 1 μM.
A general note: A reporter such as luciferase makes a cellular process visible.

Another experiment has as its system murine Notch3. Briefly: DLL4-Fc induced receptor activation in transfected PC3 cells, murine Notch3. The note with it: immobilized DLL4-Fc. It is filed as cell-based, mouse. The protocol: 59R5 was determined to have similar activity in blocking Notch2 and Notch3 signaling as 59R1. Receptor activation was determined in luciferase-based assays. PC3 tumor cells were transiently transfected with a human or mouse Notch receptor (human Notch2, murine Notch2, human Notch3, or murine Notch3) and […] inducible reporter construct. Transfected cells were incubated with different concentrations of 59R1 or 59R5 antibody in the presence of passively immobilized DLL4-Fc protein. Notch receptor activation was determined by measuring luciferase activity.

Sequence of human Notch2 (Q04721 26-2471): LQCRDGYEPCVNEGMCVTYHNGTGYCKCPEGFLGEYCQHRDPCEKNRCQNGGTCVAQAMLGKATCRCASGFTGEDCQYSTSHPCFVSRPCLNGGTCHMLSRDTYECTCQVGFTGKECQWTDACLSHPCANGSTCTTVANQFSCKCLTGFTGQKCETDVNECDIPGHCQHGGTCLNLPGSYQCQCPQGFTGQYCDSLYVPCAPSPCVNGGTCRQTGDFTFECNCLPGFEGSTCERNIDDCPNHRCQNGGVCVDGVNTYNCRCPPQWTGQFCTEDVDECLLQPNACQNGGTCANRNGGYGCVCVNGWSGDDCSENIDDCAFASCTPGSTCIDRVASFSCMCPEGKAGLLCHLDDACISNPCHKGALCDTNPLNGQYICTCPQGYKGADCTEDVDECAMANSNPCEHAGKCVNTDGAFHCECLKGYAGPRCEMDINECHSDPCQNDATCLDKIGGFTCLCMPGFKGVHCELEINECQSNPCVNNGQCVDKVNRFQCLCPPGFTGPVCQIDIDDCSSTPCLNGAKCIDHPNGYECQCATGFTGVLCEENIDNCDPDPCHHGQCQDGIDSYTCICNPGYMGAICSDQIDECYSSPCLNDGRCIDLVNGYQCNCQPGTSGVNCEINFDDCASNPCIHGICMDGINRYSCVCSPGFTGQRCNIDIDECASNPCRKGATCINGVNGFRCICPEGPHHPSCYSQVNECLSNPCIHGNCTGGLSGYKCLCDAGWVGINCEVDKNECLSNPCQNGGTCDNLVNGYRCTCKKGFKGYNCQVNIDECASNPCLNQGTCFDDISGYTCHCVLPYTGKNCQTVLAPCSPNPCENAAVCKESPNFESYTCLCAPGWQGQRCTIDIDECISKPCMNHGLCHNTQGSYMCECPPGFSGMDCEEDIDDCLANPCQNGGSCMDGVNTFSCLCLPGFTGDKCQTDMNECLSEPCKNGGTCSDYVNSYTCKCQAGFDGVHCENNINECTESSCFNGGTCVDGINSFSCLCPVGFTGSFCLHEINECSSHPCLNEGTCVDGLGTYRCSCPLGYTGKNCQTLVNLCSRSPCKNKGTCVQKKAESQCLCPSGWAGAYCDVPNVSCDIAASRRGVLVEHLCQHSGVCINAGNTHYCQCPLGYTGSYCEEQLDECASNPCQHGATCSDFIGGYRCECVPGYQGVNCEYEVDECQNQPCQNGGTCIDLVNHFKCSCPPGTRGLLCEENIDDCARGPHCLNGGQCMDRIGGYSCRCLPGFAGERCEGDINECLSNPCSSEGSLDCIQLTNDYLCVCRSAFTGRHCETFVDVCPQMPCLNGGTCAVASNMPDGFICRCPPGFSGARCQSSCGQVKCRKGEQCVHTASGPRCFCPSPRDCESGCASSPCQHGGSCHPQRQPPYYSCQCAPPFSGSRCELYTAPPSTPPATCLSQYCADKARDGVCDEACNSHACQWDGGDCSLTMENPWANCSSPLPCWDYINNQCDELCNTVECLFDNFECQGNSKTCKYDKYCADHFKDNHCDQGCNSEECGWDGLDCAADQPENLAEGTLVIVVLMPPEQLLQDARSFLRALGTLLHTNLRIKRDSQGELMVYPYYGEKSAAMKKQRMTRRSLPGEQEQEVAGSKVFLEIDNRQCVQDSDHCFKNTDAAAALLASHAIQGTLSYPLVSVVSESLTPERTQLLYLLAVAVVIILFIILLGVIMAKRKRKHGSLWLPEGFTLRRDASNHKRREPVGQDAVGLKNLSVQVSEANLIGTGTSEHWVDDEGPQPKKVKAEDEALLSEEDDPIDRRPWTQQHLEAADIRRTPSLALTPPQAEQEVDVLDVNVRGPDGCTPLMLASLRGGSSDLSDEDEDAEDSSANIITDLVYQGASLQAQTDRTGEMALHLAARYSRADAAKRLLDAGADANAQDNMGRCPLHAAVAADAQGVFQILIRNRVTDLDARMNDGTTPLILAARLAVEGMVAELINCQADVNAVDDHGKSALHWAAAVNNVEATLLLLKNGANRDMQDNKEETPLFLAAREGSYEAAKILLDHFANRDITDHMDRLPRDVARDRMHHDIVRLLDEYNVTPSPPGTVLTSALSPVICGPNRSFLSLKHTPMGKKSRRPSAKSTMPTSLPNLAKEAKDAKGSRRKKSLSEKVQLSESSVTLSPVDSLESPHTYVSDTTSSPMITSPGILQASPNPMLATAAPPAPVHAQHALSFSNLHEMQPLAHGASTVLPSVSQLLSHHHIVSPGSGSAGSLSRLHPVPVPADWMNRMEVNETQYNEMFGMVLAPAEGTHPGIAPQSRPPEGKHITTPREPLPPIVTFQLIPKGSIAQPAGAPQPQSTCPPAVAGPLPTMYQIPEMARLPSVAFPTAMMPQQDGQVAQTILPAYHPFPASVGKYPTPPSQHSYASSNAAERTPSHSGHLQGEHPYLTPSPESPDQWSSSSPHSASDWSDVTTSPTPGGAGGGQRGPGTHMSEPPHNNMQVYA

As to “59R1: human IgG2 antibody binding Notch2 and Notch3; heavy and light chain SEQ ID NO:16 and 18; ATCC PTA-9547”, in the experiment with PE13 breast tumors, the “Fold BMPR1B” value is −4.3, the “Fold BNIP3” value was 1.8, the “Fold EGLN3” value stood at 11.9 and the “Fold HSPB6” value is given as −1.8. For the same substance, in the experiment with PE13 breast tumors, the “Fold ITGAM” value is listed as −2.5, the “Fold LHX8” value was −4.4, the “Fold NDRG1” value was 6.4 and the “Fold RARRES1” value is −2.2. For the same substance, in the experiment with PE13 breast tumors, the “Fold RARRES3” value is listed as −1.7, the “Fold RBP2” value is reported as −2.2 and the “Fold XAF1” value is −1.5. Also, the “binding to human Notch2 (FACS)” value with human Notch2 is “confirmed”. In addition, the “B39 breast cancer growth relative to control antibody” value in experiment [1] is recorded as “inhibit breast cancer growth”. The “hJAG1-induced Notch2 reporter activity” value in experiment [2] is on record as “inhibit”.
Consider “59R5: human antibody that specifically binds human Notch 2 and human Notch 3; heavy and light chain SEQ ID NO:49 and 18; ATCC PTA-10170”, for which the “ligand-induced activation of murine Notch3 receptor signaling” value in the experiment on murine Notch3 is reported as “blocked”.
